Patent publication US20230174633A1, “METHODS AND COMPOSITIONS FOR MODULATING LIPID STORAGE IN ADIPOSE TISSUE” (MEMORIAL SLOAN KETTERING CANCER CENTER, priority 2020, published 2023)
Numbering of substitutions follows the chain as printed.

Key:
[1] = tested on: Lepr^-/- (db/db) mice; assay: PLX5622 treatment of leptin-receptor deficient mice that spontaneously develop obesity; type: in vivo, mouse
Source text: (§1) Mice and diets. All experiments on mice were realized in accordance with an animal license issued by the Institutional Review Board (IACUC 15-04-006) from MSKCC. All mice were maintained under SPF conditions. C57B1/6J male mice were purchased from Jackson laboratories. Rosa26^LSL-Tomato (Stock No: 007908), Rosa26^LSL-^YFP (Stock No:006148), Rosa26^mTmG (Stock No: 007576) and Lepr^-/-(db/db) (herein referred to as Lepr^-/-; Stock No: 000697) mice were purchased from Jackson laboratories and bred in house. Csf1r^Cre, Csf1r^MeriCreMer, and Csf1r^fl/fl mice were obtained from J W. Pollard (The University of Edinburgh), Cx3cr1^GFP/+ mice were obtained from Drs. Dan Littman (NYU Skirball institute), Flt3^Cre mice were obtained from Thomas Boehm (Max Planck institute) and Tnfrsf11a^Cre mice were obtained from Y. Kobayashi (Matsumoto Dental University). Ccr2^-/- mice were obtained from IF. Charro (UCSF) Csf1r^-/- mice were backcrossed to FVB/NJ for more than 10 generations. Mice were fed ad libitum a rodent irradiated diet containing 45% kcal from lipids (Research Diets Inc., reference D12451i) or 10% kcal from lipids (Research Diets Inc., reference D12450hi) for 8 weeks. In mice supplemented with the CSF-1R inhibitor PLX5622 (Plexxikon), the aforementioned diets were impregnated with 1200 mg of inhibitor per kg of food. In the experiment named 45%>10% the mice were fed 45% lipid diet for 8 weeks then 10% lipid diet for 2 weeks and compared to mice fed 10% lipid diet for 10 weeks. Mice were weighed weekly. Tnfrsf11a^Cre; Csflr^f/f and Csf1r^Cre; Csf1r^f/f mice are osteopetrotic and as such lack teeth. To prevent confounding systemic effects due to nutritional intake problems, the Tnfrsf11a^Cre; Csf1r^f/f Csf1r^Cre; Csf1r^f/f and control littermates were fed a nutritionally fortified water gel. The nutritional gels were replaced every 12 hours.
(§2) Metabolic analysis of Leptin receptor deficient mice, PLX5622-treated mice, anti-PDGFcc treated mice, and control C57Bl/6J mice. Animals were individually housed in a temperature controlled Promethion Metabolic Screening System (Sable Systems International, NV). Food intake was acquired gravimetrically and ambulatory activity was acquired using a laser matrix. Mice were acclimated to this environment on a 12 hr light/dark cycle for 48 hr before the indicated length of recording (24 hr to 120 hr) period began. Fecal bomb calorimetry was performed on feces collected during the last day of metabolic cage recording period, dehydrated in an oven at 60C for 48 hr, then combusted in technical duplicates with a Parr 6725 Semimicro Calorimeter to determine gross caloric intake.
Triglyceride Measurement for Mice. To measure triglycerides, ~ 100 mg of mouse liver was homogenized in 100 µl of PBS + 0.05% Tween 20. Triglyceride was then measured using the free glycerol reagent (Sigma; F6428) as described in the manufacturer’s protocol and normalized to the liver weight.
To quantify the size of the adipocytes, the software image J was used. Regions of interest (ROI) were drawn following the cellular membrane of the adipocytes and the surface of the ROI was determined by the software. 50 adipocytes were measured per field of view of the eWAT. Adipocytes were measured on 3 fields of view, taken with N-Achroplan 10x/0.25 objective. Crown-like structures (CLS) were quantified on the same fields of view. Crown like structures were defined as microscopic foci of dying adipocytes surrounded by macrophages as visualized by H&E staining.

[2] = tested on: C57B1/6J mice; assay: Treatment of C57Bl/6J mice fed 45% or 10% lipid diet (diet-induced obesity); type: in vivo, mouse; details: 1,200 mg PLX5622/kg of food
Source text: as §1
Glucose and insulin tolerance tests were performed as described; in brief, for the glucose tolerance test, the mice were fasted for 4h before experiment, but had water ad libitum. The weight and glycaemia were measured, and the mice were injected intraperitoneally with 2 g glucose (Thermo Scientific) per kg of body weight. Following the glucose injection, glycemia was measured every 30 min for 2 hours. For the insulin tolerance test, the mice were fasted for 4h before experiment, but had water ad libitum. The weight and the glycaemia were measured, and the mice were injected with 0.25U insulin (Sigma) per kg of body weight. Following the glucose injection, glycemia was measured every 30 min for 2 hours. To measure the glycaemia, the tail of the animals was pricked with a 27G needle and a drop of blood was placed on the glucometer (ACCU-CHECK AVIVA, Roche). […]
as §2
Infrared imaging of mice. Infrared images were taken on the last day of metabolic analysis using a FLIR T430sc Infrared Camera. These images were into RAW files and then analyzed in AMIDE. A box was drawn over region of interest (ROI); interscapular (70×30), inguinal (35×35) and dorsal. The 10% top warmest pixels were used for interscapular and inguinal quantifications. The 20% top warmest pixels were used for dorsal quantifications. […]

[3] = tested on: epididymal fat pad explants; assay: eWAT (epididymal fat pad) explants cultured ex vivo, lipid storage by adipocytes; type: cell-based, mouse; details: Tnfrsf11a^Cre; Csf1r^f/f fat pads; 100 ng/ml PDGFcc, 10 ng/ml VEGFb or 10 ng/ml IGF1 on days 0, 3, 6
Description: Whole Mount Imaging and Cytology of Sorted Macrophages. For whole mount immunofluorescence imaging, after anesthesia and blood collection by cardiac puncture, the mice were perfused with 10 mL PBS at room temperature. Approximately 3 mm^3 pieces of the tissue were incubated in 4% paraformaldehyde (PFA) (Electron Microscopy) diluted in PBS for 30 min at room temperature with agitation, then rinsed with PBS and stained with directly conjugated antibodies for 30 minutes. Then the samples were rinsed with PBS 3× and mounted on cavity slides (Sigma) with Fluoromount G (eBioscience). Approximately 50 µm thick Z-stack and tile scan were acquired with LSM880 Zeiss microscope with 40x/1.3 (oil). Image analysis was performed using Imaris (Bitplane) software.
In Vitro Epididymal Adipose Tissue Explants. Epididymal fat pads of 4-day-old Tnfrsf11a^Cre+Csf1r^fl/fl mice and littermates were dissected and incubated in RPMI with 10% heat de-activated FBS at 37° C. for 14 days. Fresh medium was added to the explants on day 7. At the termination of the experiment, the explants were fixed in 4% PFA for 30 minutes at room temperature with agitation and then rinsed in PBS and permeabilized for 15 minutes in PBS + 0.03% Triton. Subsequently, the explants were blocked with 2% BSA and stained with directly conjugated antibodies. To remove macrophages from wt epididymal fat pads in vitro, 15 µM of the CSF1R inhibitor PLX5622 was added to explants on day 0 and 7 following the addition of fresh medium. For the in vitro rescue experiments, epididymal fat pads of Tnfrsf11a^Cre; Csf1r^fl/fl mice and littermates as well as […] treated fat pads were supplemented with 100 ng/ml of recombinant mouse PDGFcc (R&D systems), 10 ng/ml of recombinant mouse VEGFb (R&D systems), or 10 ng/ml of recombinant mouse IGF1 (R&D systems) three times on days 0, 3, and 6.

[4] = biological target: PDGFRA/A homodimers (Homo sapiens, UniProt P16234); details: Gilbertson et al. 2001; cited from earlier work
Chain of PDGFRA/A homodimers (P16234 24-1089, species assumed): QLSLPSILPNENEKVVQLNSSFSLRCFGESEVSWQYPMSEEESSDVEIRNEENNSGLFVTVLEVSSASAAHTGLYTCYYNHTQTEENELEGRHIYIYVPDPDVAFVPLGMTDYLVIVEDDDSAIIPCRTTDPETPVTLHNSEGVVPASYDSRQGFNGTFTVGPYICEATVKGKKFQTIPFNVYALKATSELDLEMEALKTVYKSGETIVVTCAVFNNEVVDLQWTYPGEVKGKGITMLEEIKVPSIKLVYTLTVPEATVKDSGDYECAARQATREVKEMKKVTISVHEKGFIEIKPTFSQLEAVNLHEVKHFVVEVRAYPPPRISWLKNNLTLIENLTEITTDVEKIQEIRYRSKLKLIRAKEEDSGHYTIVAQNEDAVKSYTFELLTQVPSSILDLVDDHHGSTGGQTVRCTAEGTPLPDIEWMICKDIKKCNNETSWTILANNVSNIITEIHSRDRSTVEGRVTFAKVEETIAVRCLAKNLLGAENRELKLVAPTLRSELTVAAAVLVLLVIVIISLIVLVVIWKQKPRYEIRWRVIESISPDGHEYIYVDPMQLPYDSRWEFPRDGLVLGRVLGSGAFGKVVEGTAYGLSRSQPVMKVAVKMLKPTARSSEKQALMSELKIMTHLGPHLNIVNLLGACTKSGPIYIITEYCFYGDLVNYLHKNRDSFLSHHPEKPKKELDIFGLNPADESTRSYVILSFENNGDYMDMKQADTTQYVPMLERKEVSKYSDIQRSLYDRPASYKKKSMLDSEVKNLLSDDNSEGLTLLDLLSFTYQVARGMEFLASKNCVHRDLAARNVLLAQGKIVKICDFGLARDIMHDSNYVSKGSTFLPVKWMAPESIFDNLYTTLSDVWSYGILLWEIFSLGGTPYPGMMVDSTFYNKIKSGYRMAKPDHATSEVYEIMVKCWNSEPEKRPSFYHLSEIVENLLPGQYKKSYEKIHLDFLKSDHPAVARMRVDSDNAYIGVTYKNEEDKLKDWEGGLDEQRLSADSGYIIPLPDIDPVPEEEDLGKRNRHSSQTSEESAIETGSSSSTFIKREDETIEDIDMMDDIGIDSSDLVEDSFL

[5] = biological target: PDGFRB/B homodimers (Homo sapiens, UniProt P09619); details: Gilbertson et al. 2001; cited from earlier work
Chain of PDGFRB/B homodimers (P09619 33-1106, species assumed): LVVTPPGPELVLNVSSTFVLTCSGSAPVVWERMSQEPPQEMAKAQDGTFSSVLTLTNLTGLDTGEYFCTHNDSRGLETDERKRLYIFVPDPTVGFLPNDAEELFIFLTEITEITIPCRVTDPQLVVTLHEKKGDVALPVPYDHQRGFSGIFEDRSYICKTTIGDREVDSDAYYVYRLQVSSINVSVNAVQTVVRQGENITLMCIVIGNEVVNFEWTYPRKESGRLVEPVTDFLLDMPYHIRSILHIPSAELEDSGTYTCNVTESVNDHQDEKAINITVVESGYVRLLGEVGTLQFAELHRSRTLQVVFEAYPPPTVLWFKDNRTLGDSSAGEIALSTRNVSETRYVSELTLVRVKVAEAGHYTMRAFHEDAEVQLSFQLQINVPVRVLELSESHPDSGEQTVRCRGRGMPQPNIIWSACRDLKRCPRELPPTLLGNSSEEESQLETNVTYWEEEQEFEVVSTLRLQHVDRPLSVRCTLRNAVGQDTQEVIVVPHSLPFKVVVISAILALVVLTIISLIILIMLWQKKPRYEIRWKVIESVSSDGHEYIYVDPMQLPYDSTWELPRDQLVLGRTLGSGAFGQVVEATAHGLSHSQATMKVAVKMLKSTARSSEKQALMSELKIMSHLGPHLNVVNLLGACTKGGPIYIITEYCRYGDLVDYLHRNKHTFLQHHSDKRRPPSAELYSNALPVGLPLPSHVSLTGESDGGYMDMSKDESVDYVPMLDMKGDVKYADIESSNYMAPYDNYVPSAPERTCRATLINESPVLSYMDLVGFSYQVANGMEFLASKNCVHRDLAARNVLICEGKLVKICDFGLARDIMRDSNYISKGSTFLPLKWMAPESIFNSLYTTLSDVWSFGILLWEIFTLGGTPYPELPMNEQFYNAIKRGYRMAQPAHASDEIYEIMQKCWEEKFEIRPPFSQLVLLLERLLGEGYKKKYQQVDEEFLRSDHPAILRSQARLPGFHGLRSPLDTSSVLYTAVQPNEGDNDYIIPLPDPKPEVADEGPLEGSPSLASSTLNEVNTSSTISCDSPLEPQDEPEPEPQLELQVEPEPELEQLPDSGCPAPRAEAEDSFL

[6] = 10% lipid diet + PLX5622 for 8 weeks

For COc1ncc(F)cc1CNc1ccc(Cc2c[nH]c3ncc(C)cc23)c(F)n1 [PLX5622], the “Pdgfc expression in adipose tissue” value ([1]; 10% lipid diet + PLX5622) was “decreased”, the adipocyte size ([1]; 10% lipid diet + PLX5622) was “decreased” and the liver inflammation ([1]; 10% lipid diet + PLX5622) was “decreased”. For the same molecule, the adipose tissue mass [1, 6] was “decreased”, the weight gain [1, 6] was “decreased” and the Dio2 expression ([1]; iBAT, PLX5622 in diet) was “increased”. For the same molecule, the Ucpl expression ([1]; iBAT, PLX5622 in diet) was “increased”, the “Dio2 expression in the iBAT” value [2] was “increased” and the “F4/80+ Tim4- and Tim4+ macrophages” value [2] was “lacked both F4/80^+ Tim4^- and Tim4^+ macrophages”. The “Ucpl expression in the iBAT” value [2] was “increased”, the TNF/IL1 production ([2]; 45% lipid diet) was “protected against” and the hepatic steatosis ([2]; 45% lipid diet) was “protected against”. For the same molecule, the metabolic syndrome ([2]; 45% lipid diet) was “protected against”, the “Pdgfcc expression in fat pads” value ([2]; high fat diet) was “did not increase” and the adipocyte hypertrophy ([2]; high fat diet) was “did not develop adipocyte hypertrophy”. The “visceral and subcutaneous white adipose tissue mass” value ([2]; high fat diet) was “did not increase” and the weight gain ([2]; high fat diet) was “gained less weight than controls”.

With “IGF1: recombinant mouse IGF1 (R&D systems)” the “rescue of bodipy staining (lipid storage)” value (“rescue of bodipy staining” below) [3] was “not”.

B1: PDGFcc: mature PDGF-CC protein, growth factor domain dimer released by removal of the CUB domain; exemplary SEQ ID NO: 2 (protein, listed as Homo sapiens)
chain: VVDLNLLTEEVRLYSCTPRNFSVSIREELKRTDTIFWPGCLLVKRCGGNCACCLHNCNECQCVPSKVTKKYHEVLQLRPKTGVRGLHKSLTDVALEHHEECDCVCRGSTGG
modifications: homodimer
In the case of B1, the “binding to PDGFRA/A homodimers” value [4] is listed as “high affinity” and the “interaction with PDGFRB/B homodimers” value [5] is listed as “fails to interact”.

B2: recombinant PDGFcc: Recombinant mouse PDGFcc, R&D systems Cat# 1447-PC-025/CF, active/cleaved form, SEQ ID NO: 3 (protein, listed as Mus sp.)
chain: B1 chain with D3N, T8K, R12K, S65R, R84K, S108N, T109A
With B2 the “rescue of bodipy staining” value [3] was “rescues bodipy staining to control levels”.

B3: VEGFb: recombinant mouse VEGFb (R&D systems) (protein, UniProt P49766 22-207, looked up)
Vascular endothelial growth …: PVSQFDGPSHQKKVVPWIDVYARATCQPREVVVPLSMELMGNVVKQLVPSCVTVQRCGGCCPDDGLECVPTGQHQVRMQILMIQYPSSQLGEMSLEEHSQCECRPKKKESAVKPDRVAIPHHRPQPRSVPGWDSTPGASSPADIIHPTPAPGSSARLAPSAVNALTPGPAAAAADAAASSIAKGGA
With B3 the “rescue of bodipy staining” value [3] was “can also rescue lipid storage”.
